{
  "source": "patent US20100285032A1",
  "about": "“ESTROGEN RECEPTOR-RELATED RECEPTOR GAMMA (ERR GAMMA) IN BONE AND CARTILAGE FORMATION AND METHODS AND COMPOSITIONS RELATING TO SAME” (priority 2007, published 2010)",
  "key": {"ERRs": {"tested_on": "ERRs", "conditions": "cited from earlier work"}, "ERRγ": {"target": "T1, ERRγ (Homo sapiens, UniProt P62508)", "T1 sequence (P62508 1-458)": "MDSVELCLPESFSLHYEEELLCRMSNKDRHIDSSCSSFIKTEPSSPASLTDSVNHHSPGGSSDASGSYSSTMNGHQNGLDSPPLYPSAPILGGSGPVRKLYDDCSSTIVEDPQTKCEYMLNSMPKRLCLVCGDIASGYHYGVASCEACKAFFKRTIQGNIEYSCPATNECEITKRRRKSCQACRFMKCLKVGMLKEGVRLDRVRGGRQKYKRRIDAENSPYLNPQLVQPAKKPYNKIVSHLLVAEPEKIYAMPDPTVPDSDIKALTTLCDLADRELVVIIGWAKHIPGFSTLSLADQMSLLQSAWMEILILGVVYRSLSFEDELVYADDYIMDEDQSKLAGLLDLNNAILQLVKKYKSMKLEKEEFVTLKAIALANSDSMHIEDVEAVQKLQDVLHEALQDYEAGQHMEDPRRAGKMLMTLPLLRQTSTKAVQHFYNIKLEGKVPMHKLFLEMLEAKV", "conditions": "cited from earlier work"}, "PGC-1/ERRα": {"tested_on": "PGC-1/ERRα", "conditions": "cited from earlier work"}, "ERRα": {"target": "T2, ERRα (Homo sapiens, UniProt P11474)", "T2 construct": "host or cells: yeast", "T2 sequence (P11474 1-423)": "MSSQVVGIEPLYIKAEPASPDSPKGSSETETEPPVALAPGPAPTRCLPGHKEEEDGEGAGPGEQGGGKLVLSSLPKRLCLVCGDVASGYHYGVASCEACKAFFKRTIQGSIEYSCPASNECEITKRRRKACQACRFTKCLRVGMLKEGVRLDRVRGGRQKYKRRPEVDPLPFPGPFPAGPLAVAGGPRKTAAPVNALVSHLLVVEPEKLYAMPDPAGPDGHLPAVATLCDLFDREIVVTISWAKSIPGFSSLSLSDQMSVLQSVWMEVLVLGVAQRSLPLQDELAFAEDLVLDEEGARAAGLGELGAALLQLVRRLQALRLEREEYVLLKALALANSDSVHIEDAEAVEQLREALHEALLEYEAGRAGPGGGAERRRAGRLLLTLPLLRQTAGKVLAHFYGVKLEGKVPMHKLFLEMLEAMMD", "conditions": "yeast-based and mammalian transient transfection assays; cited from earlier work"}, "rat calvaria (RC) cells": {"tested_on": "rat calvaria (RC) cells", "experiment": "Bone nodule formation in rat calvaria (RC) cell cultures after oligonucleotide treatment", "format": "cell-based", "description": "(§1) Cells were isolated from 21-day-old fetal Wistar rat or neonatal mouse calvariae or were the chondrogenic C5.18 cell line and were grown for osteogenic or chondrogenic differentiation as described previously (Bonnelye et al., 2001; Bonnelye et al., 2007). Medium was replaced every second day and cells were cultured at 37° C. in a 5% CO2 humidified atmosphere for 15-20 days until mineralized bone nodules or cartilage nodules had formed in control cultures.\n(§2) Rat calvarial cells were plated into 24 well plates at 10^4 cells/well. Antisense oligonucleotide inhibition of ERRγ expression was accomplished with a 20-base phosphorothioate-modified oligonucleotide. Control dishes were treated with the complementary sense oligonucleotide or no oligonucleotide. Briefly, oligonucleotide concentrations that have been found previously not to be toxic (0.5 μM to 2 μM) were added directly to cells during the proliferation (day 1-5) or differentiation phase (day 5 (end of proliferation) to 11) in standard medium as above supplemented with 50 μg/ml ascorbic acid, 10 mM sodium β-glycerophosphate. Medium was changed every 2 days and fresh oligonucleotides were added at each change. At day 15, cultures were terminated and stained for alkaline phosphatase according to previous protocols (Bonnelye et al., 2001)."}, "C5.18 cells": {"tested_on": "C5.18 cells", "experiment": "Cartilage nodule formation in C5.18 cell cultures after oligonucleotide treatment", "format": "cell-based, rat", "conditions": "C5.18 cultures, treated during differentiation phase", "description": "as §1, §2"}},
  "data": [
    {"molecule": "4-hydroxytamoxifen", "values": [
      {"measurement": "activity on ERRs (agonist/antagonist)", "setting": "ERRs", "result": "antagonists of ERRs"},
      {"measurement": "activity on ERRγ (agonist/antagonist)", "setting": "ERRγ", "result": "antagonize ERRγ"}
    ]},
    {"molecule": "CN(C)CCOc1ccc(/C(=C(/CCCl)c2ccccc2)c2ccc(O)cc2)cc1", "note": "[4-hydroxytoremifene]", "values": [
      {"measurement": "activity on ERRγ (agonist/antagonist)", "setting": "ERRγ", "result": "antagonize ERRγ"}
    ]},
    {"molecule": "O=c1cc(-c2ccc(O)c(O)c2)oc2ccc(O)cc12", "note": "[6,3′,4′-trihydroxyflavone]", "values": [
      {"measurement": "activity on ERRs (agonist/antagonist)", "setting": "ERRs", "result": "agonists of ERRs"}
    ]},
    {"molecule": "CC(C)c1ccc(/C=N/NC(=O)c2ccc(O)cc2)cc1", "note": "[GSK4716]", "values": [
      {"measurement": "activity on ERRγ (agonist/antagonist)", "setting": "ERRγ", "result": "agonists of ERRγ"}
    ]},
    {"molecule": "COc1cc(/C=C(\\C#N)C(=O)Nc2nnc(C(F)(F)F)s2)ccc1OCc1ccc(C(F)(F)F)cc1C(F)(F)F", "note": "[XCT790]", "values": [
      {"measurement": "activity on PGC-1/ERRα dependent signaling", "setting": "PGC-1/ERRα", "result": "inverse agonists"}
    ]},
    {"molecule": "COc1ccc(-c2coc3cc(O)cc(O)c3c2=O)cc1", "note": "[biochanin A]", "values": [
      {"measurement": "activity on ERRs (agonist/antagonist)", "setting": "ERRs", "result": "agonists of ERRs"}
    ]},
    {"molecule": "ClC1=C(Cl)C2(Cl)C3C(Cl)C(Cl)CC3C1(Cl)C2(Cl)Cl", "note": "(stereo not shown) [chlordane]", "values": [
      {"measurement": "effect on constitutive activity of ERRα", "setting": "ERRα", "result": "suppress the constitutive activity of ERRα"}
    ]},
    {"molecule": "O=c1c(-c2ccc(O)cc2)coc2cc(O)ccc12", "note": "[daidzein]", "values": [
      {"measurement": "activity on ERRs (agonist/antagonist)", "setting": "ERRs", "result": "agonists of ERRs"}
    ]},
    {"molecule": "CC/C(=C(/CC)c1ccc(O)cc1)c1ccc(O)cc1", "note": "[diethylstilbestrol]", "values": [
      {"measurement": "activity on ERRs (agonist/antagonist)", "setting": "ERRs", "result": "antagonists of ERRs"}
    ]},
    {"molecule": "O=c1c(-c2ccc(O)cc2)coc2cc(O)cc(O)c12", "note": "[genistein]", "values": [
      {"measurement": "activity on ERRs (agonist/antagonist)", "setting": "ERRs", "result": "agonists of ERRs"}
    ]},
    {"molecule": "CC1(C)C(C(Cl)Cl)C2(Cl)C(Cl)C(Cl)C1(Cl)C2(Cl)Cl", "note": "(stereo not shown) [toxaphene]", "values": [
      {"measurement": "effect on constitutive activity of ERRα", "setting": "ERRα", "result": "suppress the constitutive activity of ERRα"}
    ]},
    {"molecule": "ggtGGTTGACGCTGTCCGTCagg (antisense GGTGGTTGACGCTGTCCGTCAGG; all phosphorothioate, sugars by position and methylation of C not given here) [antisense oligonucleotide]", "values": [
      {"measurement": "bone nodule formation", "setting": "rat calvaria (RC) cells; RC cultures, treated during differentiation phase (day 5 to 11)", "result": "significantly increased"},
      {"measurement": "bone nodule formation", "setting": "rat calvaria (RC) cells; RC cultures, treated during proliferation phase (day 1-5)", "result": "significantly increased"},
      {"measurement": "bone nodule formation", "setting": "rat calvaria (RC) cells; rat calvaria osteoblastic cells, treatment phase not stated", "result": "increases bone nodule formation"},
      {"measurement": "cartilage nodule formation", "setting": "C5.18 cells", "result": "tended to increase"}
    ]}
  ]
}
